According to patent publication US20230013669A1, “Antibacterial Treatment Using a Cannabinoid and an Active Agent” (priority 2019, published 2023):
“And” between values parts separate entries of the source, which are not always exact repeats. Identical values can stand only once.

Tested on: Escherichia coli ATCC 25922 (GN_001)
Experiment: Synergy of cannabidiol with cell-wall disrupting agent (CBD MIC in combination, FICI)
Type: cell-based
Description: The compounds were stored short term at 4° C.
Analysis was performed using Microsoft Excel.

[1] = CBD with Colistin, Escherichia coli ATCC 25922
[2] = CBD with MCC_6442, Escherichia coli ATCC 25922
[3] = CBD with Ticarcillin, Escherichia coli ATCC 25922

For C=C(C)C1CCC(C)=CC1c1c(O)cc(CCCCC)cc1O (stereo not shown) [Cannabidiol, 2-[3-methyl-6-(1-methylethenyl)-2-cyclohexen-1-yl]-5-pentyl-1,3-benzenediol], the “CBD MIC with Aztreonam” value (Aztreonam at 0.062 μg/mL) was 1 ng/mL, the “CBD MIC with Aztreonam” value (Aztreonam at 0.25 μg/mL) was 1 ng/mL and the “CBD MIC with Aztreonam” value (Aztreonam at 0.5 μg/mL) was 1 ng/mL. For the same molecule, the “CBD MIC with Aztreonam” value (Aztreonam at […]) was 1 ng/mL, the FICI (CBD with Aztreonam at 0.015 μg/mL, CBD MIC taken as 256 μg/mL) was 1.12 and the FICI (CBD with Aztreonam at 0.031 μg/mL, CBD MIC taken as 256 μg/mL) was 1.248. For the same molecule, the FICI (CBD with Aztreonam at 0.062 μg/mL, CBD MIC taken as 256 μg/mL) was 0.496, the FICI (CBD with Aztreonam at 0.25 μg/mL, CBD MIC taken as 256 μg/mL) was 2 and the FICI (CBD with Aztreonam at 0.5 μg/mL, CBD MIC taken as 256 μg/mL) was 4. The FICI range (CBD with Aztreonam, Synergy table (Table 76)) was 0.48, the FICI range (CBD with Aztreonam, all tested concentrations (Table 74)) was 0.5-4 and the FICI (CBD with Cefepime at 0.015 μg/mL, CBD MIC taken as 256 μg/mL) was 1.484 and 1.242. The FICI (CBD with Cefepime at 0.062 μg/mL, CBD MIC taken as 256 μg/mL) was 2, the FICI (CBD with Cefepime at 0.25 μg/mL, CBD MIC taken as 256 μg/mL) was 8.065 and the FICI (CBD with Cefepime at 0.25 μg/mL, CBD MIC taken as 256 μg/mL, listed as cannabidiol) was 4.032. The FICI (CBD with Cefepime at 0.5 μg/mL, CBD MIC taken as 256 μg/mL) was 16.13 and 8.065, the FICI range (CBD with Cefepime, all tested concentrations (Table 79), listed as CBD) was 1-16.13 and 0.5-8.06 and the FICI (CBD with Cefotetan at 0.015 μg/mL, CBD MIC taken as 256 μg/mL) was 1.06. It also gave an FICI (CBD with Cefotetan at 0.031 μg/mL, CBD MIC taken as 256 μg/mL) of 1.124, an FICI (CBD with Cefotetan at 0.062 μg/mL, CBD MIC taken as 256 μg/mL) of 1.248 and an FICI (CBD with Cefotetan at 0.5 μg/mL, CBD MIC taken as 256 μg/mL) of 2. The “FICI range (MIC table)” value (CBD with Cefotetan, Escherichia coli ATCC 25922) was 0.5-2, the FICI range (CBD with Cefotetan, Synergy table (Table 71)) was 0.5 and the FICI (CBD with Ceftazidime at 0.015 μg/mL, Escherichia coli ATCC 25922) was 1.242. The FICI (CBD with Ceftazidime at 0.031 μg/mL, Escherichia coli ATCC 25922) was 1.5, the FICI (CBD with Ceftazidime at 0.062 μg/mL, Escherichia coli ATCC 25922) was 2 and the FICI (CBD with Ceftazidime at 0.25 μg/mL, Escherichia coli ATCC 25922) was 4.032. For the same molecule, the FICI (CBD with Ceftazidime at 0.5 μg/mL, Escherichia coli ATCC 25922) was 8.065, the “FICI range (MIC table)” value (CBD with Ceftazidime, Escherichia coli ATCC 25922) was 1.24-8.06 and the FICI (CBD with Cefuroxime at 0.25 μg/mL, Escherichia coli ATCC 25922) was 1.125. For the same molecule, the FICI (CBD with Cefuroxime at 1 μg/mL, Escherichia coli ATCC 25922) was 1.5, the FICI (CBD with Cefuroxime at 2 μg/mL, Escherichia coli ATCC 25922) was 1.001 and the FICI (CBD with Cefuroxime at 4 μg/mL, Escherichia coli ATCC 25922) was 2. The FICI (CBD with Cefuroxime at 8 μg/mL, Escherichia coli ATCC 25922) was 4, the FICI (CBD with Colistin at 0.015 μg/mL, Escherichia coli ATCC 25922) was 1.03 and the FICI (CBD with Colistin at 0.03 μg/mL, Escherichia coli ATCC 25922) was 1.06. The FICI (CBD with Colistin at 0.06 μg/mL, Escherichia coli ATCC 25922) was 0.1512, the FICI (CBD with Colistin at 0.25 μg/mL, Escherichia coli ATCC 25922) was 0.5039 and the FICI (CBD with Colistin at 0.5 μg/mL, Escherichia coli ATCC 25922) was 1. For the same molecule, the “FICI range (MIC table)” value [1] was 0.15-1.06, the “FICI range (Synergy table)” value [1] was 0.15-0.5 and the “FICI range (MIC table)” value [2] was 0.5-1.25. The “FICI range (Synergy table)” value [2] was 0.5, the FICI (CBD with MCC_6442 at 0.25 μg/mL, Escherichia coli ATCC 25922) was 1.0625 and the FICI (CBD with MCC_6442 at 0.5 μg/mL, Escherichia coli ATCC 25922) was 1.125. For the same molecule, the FICI (CBD with MCC_6442 at 2 μg/mL, Escherichia coli ATCC 25922, listed as CBD) was 0.5, the FICI range (CBD with Octapeptin C4, Synergy table (Table 85), listed as CBD) was 0.5 and 0.31-0.5 and the FICI range (CBD with Octapeptin C4, all tested concentrations (Table 83), listed as CBD) was 0.5-1.25 and 0.31-1.13. It also gave an FICI (CBD with Octapeptin C4 at 0.5 μg/mL, CBD MIC taken as 256 μg/mL) of 1.0625, an FICI (CBD with Octapeptin C4 at 1 μg/mL, CBD MIC taken as 256 μg/mL) of 1.125 and an FICI (CBD with Octapeptin C4 at 2 μg/mL, CBD MIC taken as 256 μg/mL) of 0.3125. The FICI (CBD with Octapeptin C4 at 4 μg/mL, CBD MIC taken as 256 μg/mL) was 0.5002 and 0.5005, the FICI (CBD with Octapeptin C4 at […], CBD MIC taken as 256 μg/mL) was 1.016 and the FICI range (CBD with Spero SPR206, 1st of 3 experiments) was 0.5-16. For the same molecule, the FICI range (CBD with Spero SPR206, 2nd of 3 experiments, listed as CBD) was 0.13-1.06 and 0.07-1.03, the FICI range (CBD with Spero SPR206, 3rd of 3 experiments) was 1.01-8 and the FICI (CBD with Spero SPR206 at 0.007 μg/mL, 2nd of 3 experiments, CBD MIC taken as 256 μg/mL) was 1.014. The FICI (CBD with Spero SPR206 at 0.015 μg/mL, 2nd of 3 experiments, CBD MIC taken as 256 μg/mL) was 1.03, the FICI (CBD with Spero SPR206 at 0.062 μg/mL, 2nd of 3 experiments, CBD MIC taken as 256 μg/mL) was 0.1279 and the FICI (CBD with Spero SPR206 at 0.25 μg/mL, 2nd of 3 experiments, CBD MIC taken as 256 μg/mL) was 0.5039. For the same molecule, the FICI (CBD with Spero SPR206 at 0.25 μg/mL, 3rd of 3 experiments, CBD MIC taken as 256 μg/mL) was 1.5, the FICI (CBD with Spero SPR206 at 0.5 μg/mL, 1st of 3 experiments, CBD MIC taken as 256 μg/mL) was 2 and the FICI (CBD with Spero SPR206 at 0.5 μg/mL, 3rd of 3 experiments, CBD MIC taken as 256 μg/mL) was 1.008. For the same molecule, the FICI (CBD with Spero SPR206 at 1 μg/mL, 1st of 3 experiments, CBD MIC taken as 256 μg/mL) was 4, the FICI (CBD with Spero SPR206 at 1 μg/mL, 3rd of 3 experiments, CBD MIC taken as 256 μg/mL) was 2.002 and 2.001 and the FICI (CBD with Spero SPR206 at 2 μg/mL, 1st of 3 experiments, CBD MIC taken as 256 μg/mL) was 8. It also gave an FICI (CBD with Spero SPR206 at 2 μg/mL, 3rd of 3 experiments, CBD MIC taken as 256 μg/mL) of 4.001, an FICI (CBD with Spero SPR206 at 4 μg/mL, 1st of 3 experiments, CBD MIC taken as 256 μg/mL) of 16 and an FICI (CBD with Spero SPR206 at 4 μg/mL, 3rd of 3 experiments, CBD MIC taken as 256 μg/mL) of 8. The FICI (CBD with Ticarcillin at 0.5 μg/mL, Escherichia coli ATCC 25922) was 1.0625, the FICI (CBD with Ticarcillin at 1 μg/mL, Escherichia coli ATCC 25922) was 1.125 and the FICI (CBD with Ticarcillin at 4 μg/mL, Escherichia coli ATCC 25922) was 0.5005. The “FICI range (MIC table)” value [3] was 0.5-1.25, the “FICI range (Synergy table)” value [3] was 0.5 and the “CBD MIC with Cefepime” value (Cefepime at 0.031 μg/mL) was 1 ng/mL. The “CBD MIC with Cefepime” value (Cefepime at 0.062 μg/mL) was 1 ng/mL, the “CBD MIC with Cefepime” value (Cefepime at 0.25 μg/mL) was 1 ng/mL and the “CBD MIC with Cefepime” value (Cefepime at 0.5 μg/mL) was 1 ng/mL. The “CBD MIC with Cefepime” value (Cefepime at […]) was 1 ng/mL, the “CBD MIC with Cefotetan” value (Cefotetan at 0.015 μg/mL) was greater than 32000 ng/mL and the “CBD MIC with Cefotetan” value (Cefotetan at 0.015 μg/mL, Escherichia coli ATCC 25922) was greater than 256000 ng/mL. For the same molecule, the “CBD MIC with Cefotetan” value (Cefotetan at 0.031 μg/mL) was greater than 32000 ng/mL, the “CBD MIC with Cefotetan” value (Cefotetan at 0.031 μg/mL, Escherichia coli ATCC 25922) was greater than 256000 ng/mL and the “CBD MIC with Cefotetan” value (Cefotetan at 0.062 μg/mL) was greater than 32000 ng/mL. For the same molecule, the “CBD MIC with Cefotetan” value (Cefotetan at 0.062 μg/mL, Escherichia coli ATCC 25922) was greater than 256000 ng/mL, the “CBD MIC with Cefotetan” value (Cefotetan at 0.25 μg/mL) was 1 ng/mL and the “CBD MIC with Cefotetan” value (Cefotetan at 0.25 μg/mL, Escherichia coli ATCC 25922) was 1 ng/mL. For the same molecule, the “CBD MIC with Cefotetan” value (Cefotetan at 0.5 μg/mL) was 1 ng/mL, the “CBD MIC with Cefotetan” value (Cefotetan at 0.5 μg/mL, Escherichia coli ATCC 25922) was 1 ng/mL and the “CBD MIC with Cefotetan” value (Cefotetan at […]) was 1 ng/mL. The “CBD MIC with Cefotetan” value (Cefotetan at […], Escherichia coli ATCC 25922) was 1 ng/mL, the “CBD MIC with Ceftazidime” value (Ceftazidime at 0.25 μg/mL, Escherichia coli ATCC 25922) was 1 ng/mL and the “CBD MIC with Ceftazidime” value (Ceftazidime at 0.5 μg/mL, Escherichia coli ATCC 25922) was 1 ng/mL. For the same molecule, the “CBD MIC with Cefuroxime” value (Cefuroxime at 2 μg/mL, Escherichia coli ATCC 25922) was 250 ng/mL.
